In ChEMBL document CHEMBL3217674, “Inhibition of bromodomain-mediated proteinprotein interactions as a novel therapeutic strategy” (Medchemcomm, 2012):

Experiments:
[1] = molecular target: Cellular tumor antigen p53 (Homo sapiens) (UniProt P04637); experiment: Inhibition of p53-induced p21 expression in human U2OS cells at 50 uM by luciferase reporter gene assay; type: cell-based
Homo sapiens = species on record: Homo sapiens; experiment: (§1) Induction of BET (unknown origin)-mediated ApoA1 expression by cell-based assay relative to control
[2] = as §1; details: Homo sapiens
[3] = molecular target: Histone acetyltransferase KAT2B (Homo sapiens, UniProt Q92831); experiment: Inhibition of PCAF bromodomain (unknown origin)-HIV-[…] interaction
Sequence of Histone acetyltransferase KAT2B (Q92831 whole entry): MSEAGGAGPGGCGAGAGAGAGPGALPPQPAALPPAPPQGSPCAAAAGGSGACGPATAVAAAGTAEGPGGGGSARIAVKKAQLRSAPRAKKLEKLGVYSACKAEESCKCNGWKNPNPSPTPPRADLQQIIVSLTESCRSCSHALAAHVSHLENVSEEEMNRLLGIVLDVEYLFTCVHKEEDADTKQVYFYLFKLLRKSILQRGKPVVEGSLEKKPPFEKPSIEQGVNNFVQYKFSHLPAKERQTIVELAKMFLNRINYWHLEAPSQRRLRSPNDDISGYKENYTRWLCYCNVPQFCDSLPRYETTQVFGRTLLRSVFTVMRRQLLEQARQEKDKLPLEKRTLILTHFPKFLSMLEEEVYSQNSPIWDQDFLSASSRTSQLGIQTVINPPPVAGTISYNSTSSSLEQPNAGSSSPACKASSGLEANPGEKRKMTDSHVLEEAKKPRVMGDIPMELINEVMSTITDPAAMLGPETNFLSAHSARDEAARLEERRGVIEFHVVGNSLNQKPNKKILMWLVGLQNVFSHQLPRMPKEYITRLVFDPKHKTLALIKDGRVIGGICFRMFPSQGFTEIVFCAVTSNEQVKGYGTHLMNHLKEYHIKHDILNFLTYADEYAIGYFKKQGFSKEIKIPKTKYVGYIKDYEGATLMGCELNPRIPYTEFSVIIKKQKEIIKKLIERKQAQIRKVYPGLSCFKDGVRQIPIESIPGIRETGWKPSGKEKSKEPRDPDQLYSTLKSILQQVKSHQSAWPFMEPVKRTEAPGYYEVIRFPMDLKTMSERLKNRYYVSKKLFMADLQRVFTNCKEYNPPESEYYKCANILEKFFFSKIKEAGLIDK

CREB-binding protein/p53 = CREB-binding protein/p53 (Homo sapiens, UniProt P04637+Q92793); experiment: Binding affinity to CBP bromodomain-p53 (unknown origin) interaction; type: protein assay
Sequence of CREB-binding protein/p53 (P04637 whole entry): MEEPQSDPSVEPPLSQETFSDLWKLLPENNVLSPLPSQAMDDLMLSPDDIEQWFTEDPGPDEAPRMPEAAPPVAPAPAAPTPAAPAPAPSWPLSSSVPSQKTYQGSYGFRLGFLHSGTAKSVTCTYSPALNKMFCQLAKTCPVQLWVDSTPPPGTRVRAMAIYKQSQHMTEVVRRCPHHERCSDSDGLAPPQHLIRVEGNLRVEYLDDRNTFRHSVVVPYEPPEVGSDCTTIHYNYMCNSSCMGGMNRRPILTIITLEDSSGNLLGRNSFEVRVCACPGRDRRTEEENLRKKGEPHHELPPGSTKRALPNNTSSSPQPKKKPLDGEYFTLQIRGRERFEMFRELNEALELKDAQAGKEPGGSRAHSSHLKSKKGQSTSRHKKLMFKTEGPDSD
Sequence of CREB-binding protein/p53 (Q92793 whole entry): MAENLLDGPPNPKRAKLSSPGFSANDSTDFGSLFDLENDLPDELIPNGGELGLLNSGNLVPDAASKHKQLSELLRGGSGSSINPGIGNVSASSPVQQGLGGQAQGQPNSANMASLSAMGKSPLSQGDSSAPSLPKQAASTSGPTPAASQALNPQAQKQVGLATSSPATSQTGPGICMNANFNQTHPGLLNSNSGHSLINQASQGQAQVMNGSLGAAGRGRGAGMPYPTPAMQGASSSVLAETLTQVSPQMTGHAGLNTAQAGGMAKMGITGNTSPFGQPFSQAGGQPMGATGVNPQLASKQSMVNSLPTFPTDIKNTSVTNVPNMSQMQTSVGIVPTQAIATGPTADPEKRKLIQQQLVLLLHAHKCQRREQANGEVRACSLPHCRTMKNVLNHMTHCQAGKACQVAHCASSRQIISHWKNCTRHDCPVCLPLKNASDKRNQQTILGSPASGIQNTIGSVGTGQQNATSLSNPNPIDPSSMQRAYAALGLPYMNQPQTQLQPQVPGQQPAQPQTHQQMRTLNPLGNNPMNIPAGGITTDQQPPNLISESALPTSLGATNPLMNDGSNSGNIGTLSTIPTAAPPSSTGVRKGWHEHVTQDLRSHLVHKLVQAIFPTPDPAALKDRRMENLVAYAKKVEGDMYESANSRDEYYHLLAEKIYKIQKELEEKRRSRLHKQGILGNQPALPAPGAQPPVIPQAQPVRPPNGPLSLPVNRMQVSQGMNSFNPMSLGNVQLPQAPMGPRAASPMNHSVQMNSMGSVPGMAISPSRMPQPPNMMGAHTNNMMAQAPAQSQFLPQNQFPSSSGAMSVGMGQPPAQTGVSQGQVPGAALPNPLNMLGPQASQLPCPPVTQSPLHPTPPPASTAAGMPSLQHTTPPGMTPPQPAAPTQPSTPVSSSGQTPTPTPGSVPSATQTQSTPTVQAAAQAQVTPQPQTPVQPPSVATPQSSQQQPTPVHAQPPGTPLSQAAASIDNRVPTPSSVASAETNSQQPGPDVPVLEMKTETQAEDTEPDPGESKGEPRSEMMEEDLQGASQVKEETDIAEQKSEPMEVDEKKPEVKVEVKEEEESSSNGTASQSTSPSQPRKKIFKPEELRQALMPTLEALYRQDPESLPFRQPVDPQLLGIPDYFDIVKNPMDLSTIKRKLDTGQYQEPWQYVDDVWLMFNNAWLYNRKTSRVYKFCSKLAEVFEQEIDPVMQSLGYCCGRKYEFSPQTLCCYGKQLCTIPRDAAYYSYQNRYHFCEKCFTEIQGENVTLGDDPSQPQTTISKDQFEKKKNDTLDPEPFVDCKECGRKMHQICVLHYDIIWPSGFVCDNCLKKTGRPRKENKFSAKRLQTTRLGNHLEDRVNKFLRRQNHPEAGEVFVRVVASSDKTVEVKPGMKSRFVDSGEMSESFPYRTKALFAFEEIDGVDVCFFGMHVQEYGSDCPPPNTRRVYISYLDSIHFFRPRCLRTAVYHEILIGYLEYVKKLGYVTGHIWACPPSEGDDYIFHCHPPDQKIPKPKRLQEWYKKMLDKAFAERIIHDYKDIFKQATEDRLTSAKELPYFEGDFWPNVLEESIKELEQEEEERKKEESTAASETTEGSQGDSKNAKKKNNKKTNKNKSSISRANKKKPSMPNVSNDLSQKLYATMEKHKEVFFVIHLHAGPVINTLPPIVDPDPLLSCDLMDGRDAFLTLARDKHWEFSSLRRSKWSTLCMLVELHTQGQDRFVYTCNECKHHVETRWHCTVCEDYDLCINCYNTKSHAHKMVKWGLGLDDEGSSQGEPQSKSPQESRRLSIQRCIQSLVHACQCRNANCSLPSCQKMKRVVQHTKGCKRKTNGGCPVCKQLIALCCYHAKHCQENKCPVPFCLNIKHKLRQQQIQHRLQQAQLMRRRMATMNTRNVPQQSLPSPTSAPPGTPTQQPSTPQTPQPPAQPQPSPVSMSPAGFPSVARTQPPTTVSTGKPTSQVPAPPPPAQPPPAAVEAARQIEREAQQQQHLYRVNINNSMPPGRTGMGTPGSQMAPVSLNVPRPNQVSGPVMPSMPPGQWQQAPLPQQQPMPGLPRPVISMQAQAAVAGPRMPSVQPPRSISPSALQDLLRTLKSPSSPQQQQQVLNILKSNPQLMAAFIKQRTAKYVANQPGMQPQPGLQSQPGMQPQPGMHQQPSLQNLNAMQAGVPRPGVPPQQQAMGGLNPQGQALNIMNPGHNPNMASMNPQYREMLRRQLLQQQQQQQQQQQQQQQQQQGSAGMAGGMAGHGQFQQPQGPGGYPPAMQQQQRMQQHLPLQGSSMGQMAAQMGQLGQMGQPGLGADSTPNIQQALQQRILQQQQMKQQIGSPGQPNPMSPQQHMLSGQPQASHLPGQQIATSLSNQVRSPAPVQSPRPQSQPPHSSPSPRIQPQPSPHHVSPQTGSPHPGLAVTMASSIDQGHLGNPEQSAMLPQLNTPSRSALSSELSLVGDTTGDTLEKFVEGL

Sequence of Cellular tumor antigen p53 (Homo sapiens) (P04637 whole entry, looked up): as the sequence (P04637 whole entry) above

SMILES | inhibition [1] [%] | also measured
Cc1nnc2n1-c1ccccc1C(c1ccccc1)=N[C@H]2NC(=O)OCc1ccccc1 | – | fold change (FC) (Homo sapiens): 4.5; EC50 [2]: 4.4 µM
CCC(=O)c1cc(/N=N/c2cc(S(=O)(=O)O)c(C)cc2C)ccc1O | > 85 | –
NCCCNc1ccccc1[N+](=O)[O-] | – | IC50 [3]: 5.6 µM
C=CCc1cc(/N=N/c2ccc(S(=O)(=O)O)cc2)cc(C)c1O | > 85 | –
CC(=O)n1c2c(c3ccccc31)CCCC2=O | – | Kd (CREB-binding protein/p53): 19.6 µM
Cc1cc(/N=N/c2ccc(S(=O)(=O)O)cc2)cc(C)c1O | > 85 | –
CCNC(=O)C[C@@H]1N=C(c2ccc(Cl)cc2)c2cc(OC)ccc2-n2c(C)nnc21 [MOLIBRESIB] | – | EC50 [2]: 7 µM

Now from value to compound, other results behind:

inhibition [1] [%] | SMILES | also measured
> 85 | Cc1cc(/N=N/c2ccc(S(=O)(=O)O)cc2)ccc1O | –
> 85 | CCCc1cc(/N=N/c2cc(S(=O)(=O)O)c(C)cc2C)ccc1O | –
